Tests used:
Type in all cases: in vivo
[1] = tested on: Housefly [Musca domestica]; test: Housefly insecticidal test; details: μg per 25 female flies; mortality after 48 hours
How it was run: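 Dry-film exposure of 25 female houseflies per cage, 48 h; LC50 as μg per 25 flies.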

[2] = tested on: Tobacco Budworm [Heliothis virescens (Fabricius)] eggs; test: Tobacco budworm egg test; details: 2-day old eggs, percent in solution
How it was run: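 2-day eggs on paper towel, acetone dip, 0.1% and below; petri dish with larval diet, 78° F. Mortality read after control hatch and larval feeding. LC50 = % compound in solution, from dose-mortality curve.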

[3] = tested on: Cabbage Looper [Trichoplusia ni (Hubner)]; test: Cabbage looper insecticidal test; details: second-instar larvae, percent in solution; 3-5 days
How it was run: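 LC50 values, given as percent test compound in solution, were calculated from dosage-mortality curves. Squash cotyledons were immersed 2-3 s in acetone-water (50-50) dilutions starting at 0.1%, dried on a screen, then infested with five second-instar larvae. Mortality was read 3-5 days on.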

[4] = tested on: Maize weevil [Sitophilus Zeamais (Motschulsky)]; test: Maize weevil insecticidal test; details: adult weevils, percent in solution; 48 hours
Experimental: The compounds in Tables 1 and 2 above were tested for insecticidal activity using the following testing procedures. LC50 values, based on the results of these tests and calculated according to dosage-mortality curves, are expressed in Table 3.
Maize weevil [Sitophilus Zeamais (Motschulsky)]:
Test compounds were diluted in a 50:50 acetone:water solution. Four corn seeds [Zea mays (L.)] which had been immersed in test solutions for 2-3 seconds and allowed to dry were placed in containers together with 10 adult weevils. The containers were covered and kept at a temperature of about 25° C. Mortality was recorded after 48 hours. Test concentrations ranged from 0.01% down to that at which 50% mortalilty occurred. The LC50 values are expressed below in Table 3 under the heading "MW" in terms of percent of the test compound in solution.

SMILES | LC50, HF [1] | LC50, TBW, E (TBW-E) [2] | LC50, CL [3] | LC50, MW [4]
Clc1ccc(N=C(OCc2cccc(Oc3ccccc3)c2)C2CCC2)cc1 [Compound 8] | 50 µg | > 0.1% | 0.01% | > 0.01%
CC(C)(C)C(=Nc1cccc(C(F)(F)F)c1)OCc1cccc(Oc2ccccc2)c1 [Compound 88] | > 100 µg | > 0.1% | 0.018% | > 0.01%
Fc1ccc(Oc2cccc(COC(=Nc3ccc(F)c(Cl)c3)C3CC3)c2)cc1 [Compound 116] | 15 µg | 0.05% | 0.00025% | > 0.01%
CCc1ccc(N=C(OCc2cccc(Oc3ccccc3)c2)C(C)(C)C)cc1 [Compound 163] | > 100 µg | > 0.1% | 0.004% | > 0.01%
CC(C)C(=Nc1ccc(F)c(Cl)c1)OCc1cccc(Oc2cccc(Cl)c2)c1 [Compound 203] | 43 µg | 0.06% | 0.0025% | > 0.01%
CC(C)C(=Nc1cc(F)c(Cl)cc1Cl)OCc1ccc(F)c(Oc2ccc(F)cc2)c1 [Compound 292] | 41 µg | 0.05% | 0.00075% | > 0.01%
Fc1ccc(Oc2cccc(COC(=Nc3cccc(C(F)(F)F)c3)C3CC3)c2)cc1 [Compound 294] | > 100 µg | > 0.1% | 0.017% | > 0.01%
CC(C)C(=Nc1ccc(F)c(Br)c1)OCc1ccc(F)c(Oc2ccccc2)c1 [Compound 299] | 8 µg | 0.017% | 0.0005% | > 0.01%
CC(C)C(=Nc1ccc(C(C)(C)C)cc1)OCc1ccc(F)c(Oc2ccc(Cl)cc2)c1 [Compound 301] | > 100 µg | > 0.1% | 0.008% | > 0.01%
CC(C)C(=Nc1cccc([N+](=O)[O-])c1)OCc1cccc(Oc2ccccc2)c1 [Compound 302] | 15 µg | > 0.1% | 0.003% | > 0.01%
CC(C)C(=Nc1c(F)c(F)cc(F)c1F)OCc1cccc(Oc2ccc(F)cc2)c1 [Compound 304] | > 100 µg | > 0.1% | 0.0024% | > 0.01%
CC(Br)C(=Nc1ccc2c(c1)OCO2)OCc1cccc(Oc2ccccc2)c1 (centres unmarked) [Compound 306] | > 100 µg | 0.1% | 0.005% | > 0.01%
CC(C)C(=Nc1ccc([N+](=O)[O-])c(C(F)(F)F)c1)OCc1cccc(Oc2ccccc2)c1 [Compound 307] | > 100 µg | 0.08% | 0.002% | > 0.01%
CC(C)C(=Nc1ccc(F)c(I)c1)OCc1ccc(F)c(Oc2ccccc2)c1 [Compound 334] | 9 µg | 0.013% | 0.0007% | > 0.01%
CC(C)c1ccc(N=C(OCc2cccc(Oc3ccccc3)c2)C2CCC2)cc1 [Compound 339] | > 100 µg | > 0.1% | 0.017% | > 0.01%
CC(C)C(=Nc1ccc(Cl)c(C(F)(F)F)c1)OCc1ccc(F)c(Oc2ccc(F)cc2)c1 [Compound 340] | 34 µg | 0.04% | 0.00037% | 0.0069%
CC(C)C(=Nc1cccc(Cl)c1)OCc1ccc(F)c(Oc2ccc(F)cc2)c1 [Compound 341] | 4 µg | 0.023% | 0.0005% | > 0.01%
CC(C)C(=Nc1cccc(F)c1)OCc1ccc(F)c(Oc2ccc(F)cc2)c1 [Compound 342] | 4.1 µg | 0.04% | 0.0008% | > 0.01%
Cc1ccc(Oc2cccc(COC(=Nc3ccc(C(C)(C)C)cc3)C(C)C)c2)cc1 [Compound 344] | > 100 µg | > 0.1% | 0.024% | > 0.01%
COc1ccc(Oc2cccc(COC(=Nc3ccc(C(C)(C)C)cc3)C(C)C)c2)cc1 [Compound 345] | > 100 µg | > 0.1% | 0.018% | > 0.01%

SMILES | LC50, HF [1] | LC50, TBW, E (TBW-E) [2] | LC50, CL [3] | LC50, MW [4]
CCOc1ccc(N=C(OCc2cccc(Oc3ccccc3)c2)C(C)C)cc1Cl [Compound 368] | < 100 µg | 0.04% | 0.002% | > 0.01%
CCOc1ccc(N=C(OCc2cccc(Oc3ccccc3)c2)C(C)C)cc1 [Compound 371] | < 100 µg | > 0.1% | 0.0022% | > 0.01%
CCOc1ccc(N=C(OCc2ccc(F)c(Oc3ccc(Cl)cc3)c2)C(C)C)cc1 [Compound 372] | > 100 µg | > 0.1% | > 0.1% | > 0.01%
CCOc1ccc(N=C(OCc2ccc(F)c(Oc3ccccc3)c2)C(C)C)cc1 [Compound 373] | < 100 µg | > 0.1% | > 0.1% | > 0.01%
CC(C)C(=Nc1ccc(I)c(Cl)c1)OCc1cccc(Oc2ccc(F)cc2)c1 [Compound 374] | < 100 µg | 0.02% | 0.00058% | > 0.01%
CC(C)C(=Nc1ccc(F)c(Br)c1)OCc1ccc(F)c(Oc2ccc(Cl)cc2)c1 [Compound 379] | < 100 µg | 0.02% | 0.00075% | > 0.01%
CC(C)C(=Nc1ccc(Br)c(Br)c1)OCc1ccc(F)c(Oc2ccc(F)cc2)c1 [Compound 383] | < 100 µg | 0.038% | 0.00029% | > 0.01%
CC(C)C(=Nc1ccc(Br)c(Br)c1)OCc1ccc(F)c(Oc2ccccc2)c1 [Compound 384] | < 100 µg | 0.025% | > 0.1% | > 0.01%
CC(C)C(=Nc1ccc(I)c(Cl)c1)OCc1ccc(F)c(Oc2ccc(F)cc2)c1 [Compound 385] | < 100 µg | > 0.1% | > 0.1% | > 0.01%
CC(C)C(=Nc1cccc(Br)c1)OCc1ccc(F)c(Oc2ccc(Cl)cc2)c1 [Compound 386] | < 100 µg | > 0.1% | 0.0012% | > 0.01%
CC(C)C(=Nc1ccc(Cl)c(C(F)(F)F)c1)OCc1ccc(F)c(Oc2ccccc2)c1 [Compound 388] | < 100 µg | > 0.1% | 0.0012% | > 0.01%
CC(C)C(=Nc1cccc(I)c1)OCc1cccc(Oc2ccc(Cl)cc2)c1 [Compound 389] | < 100 µg | > 0.1% | 0.00069% | > 0.01%
CC(C)C(=Nc1cccc(Cl)c1)OCc1ccc(F)c(Oc2ccc(Cl)cc2)c1 [Compound 390] | < 100 µg | 0.045% | 0.0021% | > 0.01%
CC(C)C(=Nc1ccc(C#N)cc1)OCc1ccc(F)c(Oc2ccc(Cl)cc2)c1 [Compound 392] | < 100 µg | 0.039% | 0.00034% | > 0.01%
CC(C)C(=Nc1ccc(C#N)cc1)OCc1cccc(Oc2ccc(Cl)cc2)c1 [Compound 393] | < 100 µg | > 0.1% | 0.00037% | > 0.01%
CC(C)C(=Nc1ccc(C#N)cc1)OCc1ccc(F)c(Oc2ccc(F)cc2)c1 [Compound 394] | < 100 µg | 0.05% | 0.00025% | > 0.01%
CC(C)C(=Nc1ccc(F)c(Cl)c1F)OCc1ccc(F)c(Oc2ccc(Cl)cc2)c1 [Compound 395] | 8.6 µg | 0.018% | < 0.1% | 0.004%
Cc1cc(N=C(OCc2ccc(F)c(Oc3ccc(F)cc3)c2)C(C)C)ccc1F [Compound 396] | < 100 µg | < 0.1% | 0.0017% | > 0.01%
COCc1c(F)c(F)c(COC(=Nc2ccc3c(c2)OCO3)C(C)C)c(F)c1F [Compound 501] | 20 µg | > 0.1% | 0.00045% | 
